The values below are quoted from earlier work in patent US20090026122A1, “BIOCOMPATIBLE SOLID-PHASE MICROEXTRACTION COATINGS AND METHODS FOR THEIR PREPARATION” (Janusz, priority 2002, published 2009).

Molecules are shown by their SMILES.

The test system of this data set is plasma proteins. As to conditions: previously published values.

Regarding `CN(C)C(=O)C(CCN1CCC(O)(c2ccc(Cl)cc2)CC1)(c1ccccc1)c1ccccc1` [Loperamide, loperamide], the “Plasma Protein Binding % Literature Values (range)” value was 95-97%.
